From patent US11639371B2, “Peptidylic inhibitors of nucleolin (NCL) targeting CAG-repeat RNA toxicity and methods for reducing polyQ-mediated toxicity in polyQ diseases” (The Chinese University of Hong Kong, priority 2016, dated 2023) come the findings set out here.

Data set [1] deals with primary rat cortical neurons. Nature of the data set: Cytotoxicity test on primary rat cortical neurons. Particulars: wild-type primary rat cortical neurons.
For the next data set, the system named is flMJDCAG84 flies. As to the kind of experiment: Pseudopupil assay, flMJDCAG84 flies. It counts as in vivo, Drosophila. The following applies: MJD disease model. The procedure:
(§1) For pseudopupil assay, flies were raised at 21.5° C. on cornmeal medium supplemented with dry yeast. For climbing ability assay, lifespan analysis as well as external eye assay, flies were raised at 25° C. on cornmeal medium supplemented with dry yeast. We usually feed flies at larval stage unless otherwise indicated. For larval stage treatment, third instar larvae were fed with different concentration of TAT-P3L dissolved in 2% sucrose solution for 2 h and then continued to culture in standard fly food. For adult stage treatment, 5 or 10 day-old adult flies were starved for 8 h and then fed with different concentrations of TAT-P3L dissolved in 2% sucrose solution overnight. After treatment, flies were cultured in standard fly food.
(§2) Pseudopupil assay^18 was performed on 12 day-old adult flies except for Httexon1CAG93 which 1 day-old adult flies were used for the assay. Images were captured by SPOT Insight CCD camera controlled by the SPOT Advanced software (Diagnostic instruments Inc.). External eye assay was performed on 1 day-old adult of CTG480 flies and 2 day-old adult of CGG90 flies using an Olympus SZX-12 stereomicroscope. […] Fly climbing ability was analyzed by negative geotaxis. […] After 1 h recovery, flies were banged to the bottom, and then scored for climbing ability as the percentage of flies remaining at the bottom (<2 cm) at 25s. […]

The test system of data set [2] is DsRedCAG250 flies. As to the kind of experiment: Lifespan analysis, DsRedCAG250 flies. Format: in vivo, Drosophila. The protocol:
as §1, §2

In data set [3] the test system is trHttCAG72/145-expressing HEK293 cells. As to the kind of experiment: LDH cytotoxicity assay, Htt disease cell model. The following applies: trHttCAG72/145-expressing HEK293, CAG-repeat RNA and polyQ protein. It counts as cell-based, Human. The protocol: (§3) Human embryonic kidney 293 cells were seeded on a 24-well plate at a density of 0.5×10^5, and pcDNA3.1-MJDCAG27/78 or, pEGFPCAG78 or, pcDNA3.1-SCA2CAG22/72/104 or pEGFP-trHttCAG23/73/145 construct was used to transfect the cells. Lactate dehydrogenase enzyme activity in the cell culture medium was measured 72 h post-transfection and drugs treatment using the Cytotox 96 non-radioactive cytotoxicity assay (Promega).

The test system of the next data set is CGG90 flies. Nature of the data set: External eye assay, CGG90 flies (Fragile X syndrome). Format: in vivo, Drosophila. The protocol: as §1, §2
Data set [4] deals with MJDCAG78-expressing HEK293 cells. Nature of the data set: LDH cytotoxicity assay, MJD disease cell model. It counts as cell-based, Human. The following applies: MJDCAG78-expressing HEK293, CAG-repeat RNA and polyQ protein. The procedure: as §3
For data set [5], the system named is pre-45s rRNA in EGFPCAG78 RNA expressing-HEK293 cells. Nature of the data set: pre-45s rRNA expression by real-time PCR in EGFPCAG78 RNA-expressing HEK293 cells. It counts as cell-based, Human. The following applies: expanded CAG-repeat RNA-expressing HEK293 cells. The protocol:
(§4) RNA was extracted from cells by Trizol reagent (Life Technologies), and 1 μg of purified RNA was then used for reverse-transcription using the ImPromII™ Reverse Transcription System (Promega). Random hexamer (Roche) was used as primers in reverse transcription. Taqman gene expression assays were performed on an ABI 7500 Real-time PCR system and data were analyzed as previously described^10. The following probes were used: pre-45s rRNA (Assay ID: AILJIZM), actin (Assay ID: Hs99999903_m1), pre-rRNA (Assay ID: AIMSG5U) and GAPDH for Drosophila (Assay ID: Dm01841186).

Data set [6] has as its system EGFPCAG78-expressing HEK293 cells. As to the kind of experiment: LDH cytotoxicity assay, EGFPCAG78 (only RNA toxicity). Format: cell-based, Human. The procedure: as §3
Data set [7] concerns DsRedCAG250 flies. Nature of the data set: Climbing ability assay, DsRedCAG250 flies. Format: in vivo, Drosophila. The procedure: as §1, §2
A further data set relates to DsRedCAG100 flies. As to the kind of experiment: Pseudopupil assay, DsRedCAG100 flies. Format: in vivo, Drosophila. The procedure:
as §1, §2

Data set [8] concerns SCA2CAG72/104-expressing HEK293 cells. Nature of the data set: LDH cytotoxicity assay, SCA2 disease cell model. It counts as cell-based, Human. The following applies: SCA2CAG72/104-expressing HEK293, CAG-repeat RNA and polyQ protein. The protocol:
as §3

The subject of a further data set is CTG480 flies. As to the kind of experiment: External eye assay, CTG480 flies (Myotonic dystrophy 1). Format: in vivo, Drosophila. The procedure: as §1, §2
In another data set the test system is Httexon1CAG93 flies. As to the kind of experiment: Pseudopupil assay, Httexon1CAG93 flies. It counts as in vivo, Drosophila. The following applies: Htt disease model, 1 day-old adults. The protocol:
as §1, §2

Data set [9] relates to pre-rRNA in DsRedCAG100 flies. Nature of the data set: pre-rRNA expression by real-time PCR in DsRedCAG100 flies. The following applies: DsRedCAG100 Drosophila model, RNA toxicity only. Format: in vivo. The protocol:
as §4, §1

pIC50: −log10 of the molar value. Peptide text beside a SMILES is read from it.

With `CC[C@H](C)[C@H](NC(=O)CNC(=O)[C@H](CCCCN)NC(=O)[C@H](CO)NC(=O)[C@H](CCCCN)NC(=O)CNC(=O)[C@H](CC(=O)O)NC(=O)[C@H](CCCCN)NC(=O)[C@H](CO)NC(=O)[C@@H](NC(=O)[C@H](CC(C)C)NC(=O)[C@H](CCCNC(=N)N)NC(=O)[C@@H](NC(=O)[C@H](CCC(=O)O)NC(=O)[C@H](C)N)[C@@H](C)CC)C(C)C)C(=O)N[C@@H](C)C(=O)N[C@@H](Cc1ccc(O)cc1)C(=O)N[C@H](C(=O)N[C@@H](CCC(=O)O)C(=O)N[C@@H](Cc1ccccc1)C(=O)N[C@@H](CCCCN)C(=O)O)[C@@H](C)CC` [P3L] (H-AEIRLVSKDGKSKGIAYIEFK-OH), the “concentration with no observed cytotoxicity (viability not compromised)” value in data set [1] is on record as “up to 25 μM”.

Regarding `CC[C@H](C)[C@H](NC(=O)CNC(=O)[C@H](CCCCN)NC(=O)[C@H](CO)NC(=O)[C@H](CCCCN)NC(=O)CNC(=O)[C@H](CC(=O)O)NC(=O)[C@H](CCCCN)NC(=O)[C@H](CO)NC(=O)[C@@H](NC(=O)[C@H](CC(C)C)NC(=O)[C@H](CCCNC(=N)N)NC(=O)[C@@H](NC(=O)[C@H](CCC(=O)O)NC(=O)[C@H](C)NC(=O)[C@H](CCCNC(=N)N)NC(=O)[C@H](CCCNC(=N)N)NC(=O)[C@H](CCCNC(=N)N)NC(=O)[C@H](CCC(N)=O)NC(=O)[C@H](CCCNC(=N)N)NC(=O)[C@H](CCCNC(=N)N)NC(=O)[C@H](CCCCN)NC(=O)[C@H](CCCCN)NC(=O)[C@H](CCCNC(=N)N)NC(=O)CNC(=O)[C@@H](N)Cc1ccc(O)cc1)[C@@H](C)CC)C(C)C)C(=O)N[C@@H](C)C(=O)N[C@@H](Cc1ccc(O)cc1)C(=O)N[C@H](C(=O)N[C@@H](CCC(=O)O)C(=O)N[C@@H](Cc1ccccc1)C(=O)N[C@@H](CCCCN)C(=O)O)[C@@H](C)CC` [TAT-P3L] (H-YGRKKRRQRRRAEIRLVSKDGKSKGIAYIEFK-OH), the “suppression of retinal degeneration (pseudopupil assay)” value with flMJDCAG84 flies and in the data set with Httexon1CAG93 flies was “suppressed retinal degeneration” each time. Also, in the data set on DsRedCAG250 flies [2], the lifespan entry is on record as “extended the lifespan”. Besides, the “suppression of cell death” value in [3], in data set [4] and in [8] was “concentration-dependent suppression in cell death” in each case. The “effect on degenerative phenotype (specificity)” value with CGG90 flies and in the data set with CTG480 flies was “did not mitigate the phenotypes” each time. Further, the “concentration with no observed cytotoxicity (viability not compromised)” value in data set [1] was “up to 25 μM”. The “pre-45s rRNA transcription level” value in [5] is “restore the pre-45s rRNA transcription level”. Moreover, the “suppression of EGFPCAG78 RNA-induced cell death” value in data set [6] (LDH enzyme activity, 72 h post-transfection and treatment) is reported as “significantly suppressed”. In [6] (concentration that reduced LDH enzyme activity by 50% vs untreated control, EGFPCAG78 HEK293, read-out: IC50 in inhibiting expanded CAG-repeat RNA-induced cell death), the pIC50 is 6.15. Also, the climbing ability entry in the data set on DsRedCAG250 flies [7] (larval treatment, 5, 10 and 15 day-old adult DsRedCAG250 flies) is listed as “ameliorated the climbing ability”; in the data set with DsRedCAG250 flies [7] (late adult stage treatment, DsRedCAG250 flies already showing degeneration) it was “dose-dependent improvement of the climbing ability”. The “suppression of neurodegeneration compared with TAT-P3” value in the data set with DsRedCAG100 flies (50 uM concentration) is on record as “suppressed neurodegeneration more effectively than TAT-P3”. In the data set with DsRedCAG100 flies (larval feeding, 12 day-old adults), the “inhibition of neurodegeneration (retinal degeneration, pseudopupil assay)” value is “concentration-dependent inhibition of neurodegeneration”. Further, the pre-rRNA expression level result in data set [9] is recorded as “restore pre-rRNA expression level”.
